Assays:
Cj1427 [1] = target: T1, Cj1427 (Campylobacter jejuni, UniProt Q0P8I7); experiment: UV-vis spectrum of bound cofactor; type: biochemical; settings: NAD+-bound enzyme; 2.0 mM substrate; 50 mM HEPES/KCl pH 7.4, 30 °C
Cj1427 [2] = target: T1, Cj1427; experiment: UV-vis loss of […] nm band; type: biochemical; settings: NADH-bound enzyme; 2.0 mM substrate; 50 mM HEPES/KCl pH 7.4, 30 °C

T1 sequence (Q0P8I7 whole entry): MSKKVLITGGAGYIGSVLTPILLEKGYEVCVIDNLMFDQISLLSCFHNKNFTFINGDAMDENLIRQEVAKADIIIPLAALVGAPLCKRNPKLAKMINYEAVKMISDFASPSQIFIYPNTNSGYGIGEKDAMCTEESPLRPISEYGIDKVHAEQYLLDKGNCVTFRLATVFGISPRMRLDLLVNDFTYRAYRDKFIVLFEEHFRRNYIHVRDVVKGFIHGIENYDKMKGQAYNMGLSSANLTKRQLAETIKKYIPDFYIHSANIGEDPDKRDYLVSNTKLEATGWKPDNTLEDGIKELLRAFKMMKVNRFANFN

Compound	UV-vis spectrum of bound cofactor (Cj1427 [1])	UV-vis loss of 350 nm band; ion exchange chromatography (Cj1427 [2])
O=C(O)CC[C@H](O)C(=O)O [L-2-hydroxyglutarate]	Cj1427 with bound NAD^+ catalyzes the oxidation of L-2-hydroxyglutarate to α-ketoglutarate and NADH	
O=C(O)CCC(=O)C(=O)O [α-ketoglutarate]		initially bound NADH was converted to NAD^+ in the presence of α-ketoglutarate

— PMC7509852 (Biochemistry, 2020)
